In patent publication US6949544B2, “Inhibitors of c-Jun N-terminal kinases (JNK) and other protein kinases” (Vertex Pharmaceuticals Incorporated, priority 2001, dated 2005):
pKi: −log10 of the molar value.

Assays:
[1] = target: T1, Lck kinase purified from bovine thymus (Bos taurus, UniProt Q3ZCM0); assay: Lck inhibition assay (33P incorporation into poly Glu-Tyr); assay type: biochemical; conditions: 10 μM ATP; read-out: Activity in the Lck Inhibition Assay (Ki rating A-C)
T1 construct: Lck kinase purified from bovine thymus; purchased Upstate Biotechnology 14-106; host or cells: bovine thymus (tissue-purified)
In short: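 Filter-binding radiometric assay of 33P transfer from ATP to poly Glu-Tyr (4:1, 5 mg/ml) by bovine thymus Lck in 0.05 M HEPES pH 7.6, 10 mM MgCl2, 2 mM DTT, 0.25 mg/ml BSA, 10 μM ATP. After 10 min at 30° C, reaction started with 33P-ATP, run 20 min, quenched with TCA; filter-bound radioactivity counted by scintillation.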

[2] = target: Glycogen Synthase Kinase 3 (GSK-3) (Homo sapiens, UniProt P49841); assay: GSK-3 inhibition assay (standard coupled enzyme assay); assay type: biochemical; conditions: 60 nM GSK-3, 10 μM ATP; read-out: GSK-3 Inhibitory Activity (Ki rating A-C)
In short: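 Pyruvate kinase/lactate dehydrogenase-coupled assay with 60 nM GSK-3 and 300 μM HSSPHQp-SEDEEE peptide in HEPES pH 7.5; compound preincubated 5 min at 30 °C, reaction started with 10 μM ATP. NADH absorbance at 340 nm tracked over 5 min; IC50 from rates versus inhibitor concentration.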

Sequence of Glycogen Synthase Kinase 3 (GSK-3) (P49841 whole entry): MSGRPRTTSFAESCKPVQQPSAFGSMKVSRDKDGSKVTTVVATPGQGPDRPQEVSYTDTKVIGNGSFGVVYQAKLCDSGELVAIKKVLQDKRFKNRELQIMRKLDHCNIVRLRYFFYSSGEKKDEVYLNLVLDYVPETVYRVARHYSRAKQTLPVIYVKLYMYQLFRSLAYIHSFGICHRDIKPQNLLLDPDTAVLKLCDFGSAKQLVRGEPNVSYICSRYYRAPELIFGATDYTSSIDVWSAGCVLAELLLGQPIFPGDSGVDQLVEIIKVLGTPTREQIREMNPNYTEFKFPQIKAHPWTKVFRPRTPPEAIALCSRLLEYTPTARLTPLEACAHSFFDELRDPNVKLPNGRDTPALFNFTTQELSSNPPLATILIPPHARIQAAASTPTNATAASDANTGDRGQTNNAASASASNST
T1 sequence (Q3ZCM0 1-509): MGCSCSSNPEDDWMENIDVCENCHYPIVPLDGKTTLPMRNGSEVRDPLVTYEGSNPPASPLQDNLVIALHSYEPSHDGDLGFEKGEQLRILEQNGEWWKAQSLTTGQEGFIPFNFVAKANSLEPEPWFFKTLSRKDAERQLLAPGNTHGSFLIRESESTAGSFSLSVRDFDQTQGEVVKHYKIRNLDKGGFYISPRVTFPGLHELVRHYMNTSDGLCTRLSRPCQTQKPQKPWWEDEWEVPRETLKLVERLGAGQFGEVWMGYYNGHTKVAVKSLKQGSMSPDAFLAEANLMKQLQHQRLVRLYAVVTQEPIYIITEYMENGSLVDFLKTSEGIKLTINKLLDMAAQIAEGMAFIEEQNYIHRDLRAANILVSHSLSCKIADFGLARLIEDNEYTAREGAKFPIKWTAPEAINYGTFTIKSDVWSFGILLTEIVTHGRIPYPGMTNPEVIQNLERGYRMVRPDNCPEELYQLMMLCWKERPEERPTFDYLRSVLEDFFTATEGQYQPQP

Row | pKi [1] | pKi [2] | Compound
1 | 6.00 to 7.00 | 6.00 to 7.00 | COc1cc(-c2ccnc(Nc3cccc(N)c3)n2)cc(OC)c1OC [Compound I-57]
2 | < 6.00 | 6.00 to 7.00 | COc1cc(-c2ccnc(Nc3ccc(N)cc3)n2)cc(OC)c1OC [Compound I-34]
